Test results published in PubChem BioAssay (NCI).
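Results reflect a 48-hour exposure of cells in 96-well plates to compound at five concentrations. TGI: total growth inhibition.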

Experiments:
Test in all cases: DTP human tumour cell line panel, 48 h
IGROV1 ovarian = tested on: IGROV1 ovarian
KM12 colon = tested on: KM12 colon
MALME-3M melanoma = tested on: MALME-3M melanoma
OVCAR-5 ovarian = tested on: OVCAR-5 ovarian
SR leukemia = tested on: SR leukemia
M14 melanoma = tested on: M14 melanoma
SK-OV-3 ovarian = tested on: SK-OV-3 ovarian
UACC-257 melanoma = tested on: UACC-257 melanoma
CAKI-1 renal = tested on: CAKI-1 renal
OVCAR-4 ovarian = tested on: OVCAR-4 ovarian
EKVX NSCLC = tested on: EKVX NSCLC
HOP-62 NSCLC = tested on: HOP-62 NSCLC
COLO 205 colon = tested on: COLO 205 colon
HL-60(TB) leukemia = tested on: HL-60(TB) leukemia
SK-MEL-28 melanoma = tested on: SK-MEL-28 melanoma
MOLT-4 leukemia = tested on: MOLT-4 leukemia
SK-MEL-5 melanoma = tested on: SK-MEL-5 melanoma
PC-3 prostate = tested on: PC-3 prostate
SN12C renal = tested on: SN12C renal
MDA-MB-435 = tested on: MDA-MB-435

Row | SMILES | TGI (IGROV1 ovarian) [µM] | TGI (KM12 colon) [µM] | TGI (MALME-3M melanoma) [µM] | TGI (OVCAR-5 ovarian) [µM] | TGI (SR leukemia) [µM] | TGI (M14 melanoma) [µM] | TGI (SK-OV-3 ovarian) [µM] | TGI (UACC-257 melanoma) [µM] | TGI (CAKI-1 renal) [µM] | TGI (OVCAR-4 ovarian) [µM] | TGI (EKVX NSCLC) [µM] | TGI (HOP-62 NSCLC) [µM] | TGI (COLO 205 colon) [µM] | TGI (HL-60(TB) leukemia) [µM] | TGI (SK-MEL-28 melanoma) [µM] | TGI (MOLT-4 leukemia) [µM] | TGI (SK-MEL-5 melanoma) [µM] | TGI (PC-3 prostate) [µM] | TGI (SN12C renal) [µM] | TGI (MDA-MB-435) [µM]
1 | CCCCOC(=O)CN1C(=O)c2ccccc2C1=O | > 100 | > 100 | > 100 | > 100 | > 100 | > 100 | > 100 | > 100 | > 100 | > 100 | > 100 | > 100 | > 100 | > 100 | > 100 | > 100 | > 100 | – | – | –
2 | O=C(CCl)N1CCCCC1C1(c2cc3ccccc3[nH]2)OCCO1 (centres undefined) | 0.558 | 8.48 | 14.5 | 17.2 | – | 13.6 | 20.2 | 13.1 | 1.86 | 9.28 | 5.74 | 20.6 | 12.1 | > 100 | 35.6 | 15.8 | 22.6 | 8.83 | 9.85 | 17.8
3 | COc1cc(CC2CCc3nc(N)nc(N)c3C2)cc(OC)c1OC (centres undefined) | 98.2 | > 100 | 28.4 | > 100 | > 100 | 28.7 | > 100 | > 63.1 | – | > 100 | > 100 | 69.7 | 21.6 | – | > 100 | > 100 | 16.6 | > 100 | > 100 | > 100
4 | C#CCCCC(=C)C[C@H](OCc1ccccc1)[C@H]1OC(=O)[C@@H]1C | – | > 100 | – | > 100 | > 100 | > 100 | > 100 | > 100 | 46.5 | > 100 | > 100 | > 100 | – | > 100 | > 100 | – | – | > 100 | > 100 | > 100
